Measured values reported in ChEMBL document CHEMBL5356958, “Discovery of a Highly Potent and Selective MYOF Inhibitor with Improved Water Solubility for the Treatment of Gastric Cancer” (J Med Chem, 2023).
In brackets after ≈: the same amount, converted by molar mass.

system: not listed separately; test: Aqueous solubility of compound in PBS at pH 7.4; format: physicochemical; settings: not given

| SMILES | solubility |
| --- | --- |
| CCc1nc(-c2ccc(OC)cc2)n(-c2cccc(C(=O)NCCCCn3ncnn3)c2)n1 | 194 µM (≈ 86.7 µg/mL) |
| CCc1nc(-c2ccc(OC)cc2)n(-c2cccc(C(=O)NCCCCn3ncc(Br)n3)c2)n1 | < 1.6 µM |
| CCc1nc(-c2ncc(OC)cn2)n(-c2cccc(C(=O)NCCCCc3ccccc3)c2)n1 | < 1.6 µM |
| CCc1nc(-c2ccc(OC)cc2)n(-c2cccc(C(=O)NCCCCn3cccn3)c2)n1 | 393 µM (≈ 175 µg/mL) |

system: MGC-803; test: Antiproliferative activity against human MGC-803 cells incubated for 48 hrs by SRB assay; format: functional, cell-based; settings: MGC-803, 48 h

| SMILES | IC50 |
| --- | --- |
| CCc1nc(-c2ccc(OC)cc2)n(-c2cccc(C(=O)NCCCCn3ncnn3)c2)n1 | 580 nM |
| CCc1nc(-c2ccc(OC)cc2)n(-c2cccc(C(=O)NCCn3nccn3)c2)n1 | > 10000 nM |
| CCc1nc(-c2ncc(OC)cn2)n(-c2cccc(C(=O)NCCCCn3nccn3)c2)n1 | 560 nM |
| CCc1nc(-c2ccc(Cl)cc2)n(-c2cccc(C(=O)NCCCCn3nccn3)c2)n1 | 730 nM |
| CCc1nc(-c2ccc(O)cc2)n(-c2cccc(C(=O)NCCCCn3nccn3)c2)n1 | 940 nM |
| CCc1nc(-c2ccc(OC(F)(F)F)cc2)n(-c2cccc(C(=O)NCCCCn3nccn3)c2)n1 | 3870 nM |
| CCc1nc(-c2ccc(OC)cn2)n(-c2cccc(C(=O)NCCCCn3nccn3)c2)n1 | 1700 nM |
| CCc1nc(-c2ccc(OC)cc2)n(-c2cccc(C(=O)NCCCCn3ncc(Br)n3)c2)n1 | 270 nM |
| CCc1nc(-c2ccc(OC)cc2)n(-c2cccc(C(=O)NCCCCc3cccs3)c2)n1 | 520 nM |
| CCc1nc(-c2ccc(OC)cc2)n(-c2cccc(C(=O)NCCCCn3nc(Br)c(Br)n3)c2)n1 | 9800 nM |
| CCc1nc(-c2ccc(OC)cc2)n(-c2cccc(C(=O)NCCCCCn3nccn3)c2)n1 | 2120 nM |
| CCc1nc(-c2ccc(C)cc2)n(-c2cccc(C(=O)NCCCCn3nccn3)c2)n1 | 600 nM |
| CCc1nc(-c2ccc(OC)cc2)n(-c2cccc(C(=O)NCCCCn3cc(Br)cn3)c2)n1 | 4380 nM |
| CCCc1ccc(-c2nc(CC)nn2-c2cccc(C(=O)NCCCCn3nccn3)c2)cc1 | 4070 nM |
| CCc1nc(-c2cccc(OC)c2)n(-c2cccc(C(=O)NCCCCn3nccn3)c2)n1 | 7290 nM |
| CCc1nc(-c2ccccc2OC)n(-c2cccc(C(=O)NCCCCn3nccn3)c2)n1 | 8310 nM |
| CCc1nc(-c2ccc(OC)nc2)n(-c2cccc(C(=O)NCCCCn3nccn3)c2)n1 | 7870 nM |
| CCc1nc(-c2ccc(OC)cc2)n(-c2cccc(C(=O)NCCCCn3cnnn3)c2)n1 | > 10000 nM |

| SMILES | IC50 |
| --- | --- |
| CCc1nc(-c2ccc(OC)cc2)n(-c2cccc(C(=O)NCCCCn3cc(Br)nn3)c2)n1 | > 10000 nM |
| CCc1nc(-c2ccc(Br)cc2)n(-c2cccc(C(=O)NCCCCn3nccn3)c2)n1 | 11100 nM |
| CCc1nc(-c2ccc(C(F)(F)F)cc2)n(-c2cccc(C(=O)NCCCCn3nccn3)c2)n1 | 3140 nM |
| CCc1nc(-c2ccc(OC)cc2)n(-c2cccc(C(=O)NCCCCn3cncn3)c2)n1 | > 10000 nM |
| CCc1nc(-c2ccc(OC)cc2)n(-c2cccc(C(=O)NCCCn3nccn3)c2)n1 | > 10000 nM |
| CCc1nc(-c2ccc(OC)cc2)n(-c2cccc(C(=O)NCCCCn3ccnn3)c2)n1 | > 10000 nM |
| CCc1nc(-c2ccc([N+](=O)[O-])cc2)n(-c2cccc(C(=O)NCCCCn3nccn3)c2)n1 | 5520 nM |
| CCc1nc(-c2ccc(OC)cc2)n(-c2cccc(C(=O)NCCCCN3CCCCC3)c2)n1 | > 10000 nM |
| CCc1nc(-c2ccc(OC)cc2)n(-c2cccc(C(=O)NCCCCCCn3nccn3)c2)n1 | > 10000 nM |
| CCc1nc(-c2ccc(OC)cc2)n(-c2cccc(C(=O)NCCCCc3ccccn3)c2)n1 | 3240 nM |
| CCc1nc(-c2ccc(OC)cc2)n(-c2cccc(C(=O)NCCCCc3ccncc3)c2)n1 | > 10000 nM |
| CCc1ccc(-c2nc(CC)nn2-c2cccc(C(=O)NCCCCn3nccn3)c2)cc1 | 1010 nM |
| CCc1nc(-c2ncc(OC)cn2)n(-c2cccc(C(=O)NCCCCc3ccccc3)c2)n1 | 250 nM |
| CCc1nc(-c2ccccc2)n(-c2cccc(C(=O)NCCCCn3nccn3)c2)n1 | 6830 nM |
| CCc1nc(-c2ccc(F)cc2)n(-c2cccc(C(=O)NCCCCn3nccn3)c2)n1 | 1370 nM |
| CCc1nc(-c2ccc(OC)cc2)n(-c2cccc(C(=O)NCCCCn3ccnc3)c2)n1 | > 10000 nM |
| CCc1nc(-c2ccc(OC)cc2)n(-c2cccc(C(=O)NCCCCn3cc(F)cn3)c2)n1 | 10800 nM |
| CCc1nc(-c2ccc(OC)cc2)n(-c2cccc(C(=O)NCCCCn3cccn3)c2)n1 | 750 nM |

system: not listed separately; test: Aqueous solubility of compound in PBS at pH 9; format: physicochemical; settings: not given

| SMILES | solubility |
| --- | --- |
| CCc1nc(-c2ccc(OC)cc2)n(-c2cccc(C(=O)NCCCCn3ncnn3)c2)n1 | 186 µM (≈ 83.1 µg/mL) |
| CCc1nc(-c2ccc(OC)cc2)n(-c2cccc(C(=O)NCCCCn3ncc(Br)n3)c2)n1 | < 1.6 µM |
| CCc1nc(-c2ncc(OC)cn2)n(-c2cccc(C(=O)NCCCCc3ccccc3)c2)n1 | < 1.6 µM |
| CCc1nc(-c2ccc(OC)cc2)n(-c2cccc(C(=O)NCCCCn3cccn3)c2)n1 | 352 µM (≈ 156 µg/mL) |

system: not listed separately; test: Aqueous solubility of compound in PBS at pH 2; format: physicochemical; settings: not given

| SMILES | solubility |
| --- | --- |
| CCc1nc(-c2ccc(OC)cc2)n(-c2cccc(C(=O)NCCCCn3ncnn3)c2)n1 | 877 µM (≈ 392 µg/mL) |
| CCc1nc(-c2ccc(OC)cc2)n(-c2cccc(C(=O)NCCCCn3ncc(Br)n3)c2)n1 | 21.4 µM (≈ 11.2 µg/mL) |
| CCc1nc(-c2ncc(OC)cn2)n(-c2cccc(C(=O)NCCCCc3ccccc3)c2)n1 | 1.7 µM (≈ 0.776 µg/mL) |
| CCc1nc(-c2ccc(OC)cc2)n(-c2cccc(C(=O)NCCCCn3cccn3)c2)n1 | 1120 µM (≈ 499 µg/mL) |

target: Myoferlin (Homo sapiens, UniProt Q9NZM1); test: Binding affinity to human MYOF C2D by SPR method; settings: not given
Sequence (Q9NZM1 whole entry): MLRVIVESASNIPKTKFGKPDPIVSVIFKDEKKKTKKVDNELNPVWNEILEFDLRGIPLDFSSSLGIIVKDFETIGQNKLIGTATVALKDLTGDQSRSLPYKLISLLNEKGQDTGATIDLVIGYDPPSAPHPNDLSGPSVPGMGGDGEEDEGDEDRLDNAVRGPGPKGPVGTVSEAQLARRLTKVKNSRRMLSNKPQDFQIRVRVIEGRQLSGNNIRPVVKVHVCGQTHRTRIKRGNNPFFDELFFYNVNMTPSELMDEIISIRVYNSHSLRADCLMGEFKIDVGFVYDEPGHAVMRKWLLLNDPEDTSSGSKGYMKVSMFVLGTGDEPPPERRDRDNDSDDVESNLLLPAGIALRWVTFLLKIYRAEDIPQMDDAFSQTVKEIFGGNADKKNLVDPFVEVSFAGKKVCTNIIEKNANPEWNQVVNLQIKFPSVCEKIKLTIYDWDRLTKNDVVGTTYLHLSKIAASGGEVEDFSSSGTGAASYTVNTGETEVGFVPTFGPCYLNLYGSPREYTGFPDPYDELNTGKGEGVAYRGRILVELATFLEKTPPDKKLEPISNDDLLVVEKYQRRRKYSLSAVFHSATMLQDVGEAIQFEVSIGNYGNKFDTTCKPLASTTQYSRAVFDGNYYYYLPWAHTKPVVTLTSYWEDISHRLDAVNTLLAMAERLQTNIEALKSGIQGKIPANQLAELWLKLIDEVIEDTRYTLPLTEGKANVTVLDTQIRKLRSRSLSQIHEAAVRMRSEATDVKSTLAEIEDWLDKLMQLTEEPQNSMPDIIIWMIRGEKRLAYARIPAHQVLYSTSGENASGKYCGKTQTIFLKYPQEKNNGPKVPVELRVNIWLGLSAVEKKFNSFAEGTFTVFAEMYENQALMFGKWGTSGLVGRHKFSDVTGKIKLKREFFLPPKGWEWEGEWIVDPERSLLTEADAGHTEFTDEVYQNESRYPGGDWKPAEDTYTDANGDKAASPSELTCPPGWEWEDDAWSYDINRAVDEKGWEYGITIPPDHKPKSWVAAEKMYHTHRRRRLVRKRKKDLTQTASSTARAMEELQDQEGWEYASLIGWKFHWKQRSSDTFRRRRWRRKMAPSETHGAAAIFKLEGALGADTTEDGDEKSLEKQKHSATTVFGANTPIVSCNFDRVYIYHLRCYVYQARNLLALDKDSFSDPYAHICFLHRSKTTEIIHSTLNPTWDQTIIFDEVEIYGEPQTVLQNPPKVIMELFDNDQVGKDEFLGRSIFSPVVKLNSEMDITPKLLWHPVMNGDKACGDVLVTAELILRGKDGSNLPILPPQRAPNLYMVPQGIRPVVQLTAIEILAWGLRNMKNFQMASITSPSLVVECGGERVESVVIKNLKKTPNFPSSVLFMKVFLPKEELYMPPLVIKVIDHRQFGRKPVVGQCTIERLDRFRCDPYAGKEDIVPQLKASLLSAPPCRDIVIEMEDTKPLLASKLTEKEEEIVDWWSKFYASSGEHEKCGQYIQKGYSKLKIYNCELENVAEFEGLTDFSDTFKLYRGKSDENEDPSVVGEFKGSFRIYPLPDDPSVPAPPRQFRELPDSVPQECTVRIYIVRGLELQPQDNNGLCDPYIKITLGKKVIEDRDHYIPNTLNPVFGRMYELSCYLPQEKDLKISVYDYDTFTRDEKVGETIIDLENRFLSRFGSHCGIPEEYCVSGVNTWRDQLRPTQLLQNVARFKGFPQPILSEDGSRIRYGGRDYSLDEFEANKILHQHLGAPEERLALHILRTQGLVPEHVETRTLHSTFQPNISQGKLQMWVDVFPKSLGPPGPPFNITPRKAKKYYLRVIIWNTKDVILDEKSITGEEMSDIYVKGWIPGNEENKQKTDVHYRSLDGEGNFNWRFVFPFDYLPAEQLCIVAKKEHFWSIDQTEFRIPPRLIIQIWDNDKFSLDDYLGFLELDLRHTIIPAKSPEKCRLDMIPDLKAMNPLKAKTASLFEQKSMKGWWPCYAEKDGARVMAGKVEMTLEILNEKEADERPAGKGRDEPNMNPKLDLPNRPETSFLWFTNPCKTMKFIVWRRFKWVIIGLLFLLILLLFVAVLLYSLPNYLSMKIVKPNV

| SMILES | Kd |
| --- | --- |
| COc1ccccc1N1C(=O)CSC1c1cccc(C(=O)NCCCCc2ccccc2)c1 (stereo not drawn) | 1330 nM |

system: MKN-45; test: Antiproliferative activity against human MKN-45 cells incubated for 48 hrs by SRB assay; format: functional, cell-based; settings: MKN-45, 48 h

| SMILES | IC50 |
| --- | --- |
| CCc1nc(-c2ccc(OC)cc2)n(-c2cccc(C(=O)NCCCCn3ncnn3)c2)n1 | 2860 nM |
| CCc1nc(-c2ccc(OC)cc2)n(-c2cccc(C(=O)NCCn3nccn3)c2)n1 | > 10000 nM |
| CCc1nc(-c2ncc(OC)cn2)n(-c2cccc(C(=O)NCCCCn3nccn3)c2)n1 | 500 nM |
| CCc1nc(-c2ccc(Cl)cc2)n(-c2cccc(C(=O)NCCCCn3nccn3)c2)n1 | 330 nM |
| CCc1nc(-c2ccc(O)cc2)n(-c2cccc(C(=O)NCCCCn3nccn3)c2)n1 | 490 nM |
| CCc1nc(-c2ccc(OC(F)(F)F)cc2)n(-c2cccc(C(=O)NCCCCn3nccn3)c2)n1 | 5140 nM |
| CCc1nc(-c2ccc(OC)cn2)n(-c2cccc(C(=O)NCCCCn3nccn3)c2)n1 | 250 nM |
| CCc1nc(-c2ccc(OC)cc2)n(-c2cccc(C(=O)NCCCCn3ncc(Br)n3)c2)n1 | 260 nM |
| CCc1nc(-c2ccc(OC)cc2)n(-c2cccc(C(=O)NCCCCc3cccs3)c2)n1 | 760 nM |
| CCc1nc(-c2ccc(OC)cc2)n(-c2cccc(C(=O)NCCCCn3nc(Br)c(Br)n3)c2)n1 | > 10000 nM |
| CCc1nc(-c2ccc(OC)cc2)n(-c2cccc(C(=O)NCCCCCn3nccn3)c2)n1 | 6610 nM |
| CCc1nc(-c2ccc(C)cc2)n(-c2cccc(C(=O)NCCCCn3nccn3)c2)n1 | 300 nM |
| CCc1nc(-c2ccc(OC)cc2)n(-c2cccc(C(=O)NCCCCn3cc(Br)cn3)c2)n1 | 4460 nM |
| CCCc1ccc(-c2nc(CC)nn2-c2cccc(C(=O)NCCCCn3nccn3)c2)cc1 | 1970 nM |
| CCc1nc(-c2cccc(OC)c2)n(-c2cccc(C(=O)NCCCCn3nccn3)c2)n1 | 9140 nM |
| CCc1nc(-c2ccccc2OC)n(-c2cccc(C(=O)NCCCCn3nccn3)c2)n1 | 2580 nM |
| CCc1nc(-c2ccc(OC)nc2)n(-c2cccc(C(=O)NCCCCn3nccn3)c2)n1 | 2750 nM |
| CCc1nc(-c2ccc(OC)cc2)n(-c2cccc(C(=O)NCCCCn3cnnn3)c2)n1 | > 10000 nM |

| SMILES | IC50 |
| --- | --- |
| CCc1nc(-c2ccc(OC)cc2)n(-c2cccc(C(=O)NCCCCn3cc(Br)nn3)c2)n1 | > 10000 nM |
| CCc1nc(-c2ccc(Br)cc2)n(-c2cccc(C(=O)NCCCCn3nccn3)c2)n1 | > 10000 nM |
| CCc1nc(-c2ccc(C(F)(F)F)cc2)n(-c2cccc(C(=O)NCCCCn3nccn3)c2)n1 | 2700 nM |
| CCc1nc(-c2ccc(OC)cc2)n(-c2cccc(C(=O)NCCCCn3cncn3)c2)n1 | > 10000 nM |
| CCc1nc(-c2ccc(OC)cc2)n(-c2cccc(C(=O)NCCCn3nccn3)c2)n1 | > 10000 nM |
| CCc1nc(-c2ccc(OC)cc2)n(-c2cccc(C(=O)NCCCCn3ccnn3)c2)n1 | > 10000 nM |
| CCc1nc(-c2ccc([N+](=O)[O-])cc2)n(-c2cccc(C(=O)NCCCCn3nccn3)c2)n1 | 880 nM |
| CCc1nc(-c2ccc(OC)cc2)n(-c2cccc(C(=O)NCCCCN3CCCCC3)c2)n1 | > 10000 nM |
| CCc1nc(-c2ccc(OC)cc2)n(-c2cccc(C(=O)NCCCCCCn3nccn3)c2)n1 | 9590 nM |
| CCc1nc(-c2ccc(OC)cc2)n(-c2cccc(C(=O)NCCCCc3ccccn3)c2)n1 | > 10000 nM |
| CCc1nc(-c2ccc(OC)cc2)n(-c2cccc(C(=O)NCCCCc3ccncc3)c2)n1 | > 10000 nM |
| CCc1ccc(-c2nc(CC)nn2-c2cccc(C(=O)NCCCCn3nccn3)c2)cc1 | 400 nM |
| CCc1nc(-c2ncc(OC)cn2)n(-c2cccc(C(=O)NCCCCc3ccccc3)c2)n1 | 410 nM |
| CCc1nc(-c2ccccc2)n(-c2cccc(C(=O)NCCCCn3nccn3)c2)n1 | 3120 nM |
| CCc1nc(-c2ccc(F)cc2)n(-c2cccc(C(=O)NCCCCn3nccn3)c2)n1 | 300 nM |
| CCc1nc(-c2ccc(OC)cc2)n(-c2cccc(C(=O)NCCCCn3ccnc3)c2)n1 | > 10000 nM |
| CCc1nc(-c2ccc(OC)cc2)n(-c2cccc(C(=O)NCCCCn3cc(F)cn3)c2)n1 | 5910 nM |
| CCc1nc(-c2ccc(OC)cc2)n(-c2cccc(C(=O)NCCCCn3cccn3)c2)n1 | 540 nM |

system: MKN-45; test: Antitumor activity against human MKN-45 cells xenografted in BALB/c mouse assessed as tumor growth inhibition at 30 mg/kg/day, ip measured every 3 days for 21 days; format: functional; settings: MKN-45, 504 h, time 21 day, read-out: TGI

| SMILES | inhibition in vivo at 30 mg/kg/day |
| --- | --- |
| CCc1nc(-c2ncc(OC)cn2)n(-c2cccc(C(=O)NCCCCc3ccccc3)c2)n1 | 52.2% |

target: hERG (KCNH2) (Homo sapiens, UniProt Q12809); test: Inhibition of human ERG at 3 uM relative to control; format: toxicity; settings: not given
Sequence (Q12809 whole entry): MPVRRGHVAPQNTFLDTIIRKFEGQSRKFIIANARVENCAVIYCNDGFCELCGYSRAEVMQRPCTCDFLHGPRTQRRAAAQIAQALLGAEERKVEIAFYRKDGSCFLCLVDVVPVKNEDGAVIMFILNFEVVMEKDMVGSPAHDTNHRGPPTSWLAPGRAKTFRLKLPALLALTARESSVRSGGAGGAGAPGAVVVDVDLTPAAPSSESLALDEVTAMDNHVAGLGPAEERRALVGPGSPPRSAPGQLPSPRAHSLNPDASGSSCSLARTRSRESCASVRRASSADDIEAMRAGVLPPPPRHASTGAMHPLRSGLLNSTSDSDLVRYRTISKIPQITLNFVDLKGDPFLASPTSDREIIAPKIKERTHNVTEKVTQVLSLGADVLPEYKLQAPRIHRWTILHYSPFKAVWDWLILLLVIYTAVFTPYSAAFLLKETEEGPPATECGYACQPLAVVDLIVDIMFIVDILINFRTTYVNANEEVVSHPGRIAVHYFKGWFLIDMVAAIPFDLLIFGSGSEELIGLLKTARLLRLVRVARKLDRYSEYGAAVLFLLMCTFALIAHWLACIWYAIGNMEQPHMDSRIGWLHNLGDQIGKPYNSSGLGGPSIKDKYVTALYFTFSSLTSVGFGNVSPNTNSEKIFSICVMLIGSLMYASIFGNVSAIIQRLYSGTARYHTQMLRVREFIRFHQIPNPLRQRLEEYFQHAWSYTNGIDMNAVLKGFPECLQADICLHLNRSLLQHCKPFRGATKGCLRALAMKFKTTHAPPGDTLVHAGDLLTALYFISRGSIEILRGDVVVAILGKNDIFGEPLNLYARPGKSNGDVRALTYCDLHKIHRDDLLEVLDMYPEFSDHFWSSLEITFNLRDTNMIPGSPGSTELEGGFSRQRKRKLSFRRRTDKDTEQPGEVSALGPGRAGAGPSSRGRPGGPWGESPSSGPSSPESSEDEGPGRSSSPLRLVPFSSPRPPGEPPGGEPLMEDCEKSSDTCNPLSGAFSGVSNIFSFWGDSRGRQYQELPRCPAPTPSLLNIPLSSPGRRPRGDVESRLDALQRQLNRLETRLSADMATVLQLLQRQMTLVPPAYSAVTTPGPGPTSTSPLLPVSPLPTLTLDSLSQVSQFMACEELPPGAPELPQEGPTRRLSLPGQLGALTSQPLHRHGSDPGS

| SMILES | inhibition at 3 µM |
| --- | --- |
| COc1cc(N)c(Cl)cc1C(=O)NC1CCN(CCCOc2ccc(F)cc2)CC1OC (stereo not drawn) [CISAPRIDE] | 107% |

system: MKN-45; test: Antitumor activity against human MKN-45 cells xenografted in BALB/c mouse assessed as tumor growth inhibition at 15 mg/kg/day, ip measured every 3 days for 21 days; format: functional; settings: MKN-45, 504 h, time 21 day, read-out: TGI

| SMILES | inhibition in vivo at 15 mg/kg/day |
| --- | --- |
| O=c1[nH]cc(F)c(=O)[nH]1 [FLUOROURACIL] | 39.2% |
